Assay results published in patent publication US20080306040A1, “Antibacterial amide macrocycles VII” (priority 2005, published 2008).
Structures can show the parent of a compound that is named as a salt. Where two headings read alike, the source gives them in different places.

Columns and labels:
S. aureus RN4220Bi^R = experiment: MIC against biphenomycin-resistant S. aureus RN4220Bi^R; format: cell-based; conditions: colony isolated in vitro from antibiotic-containing plate
Description: (§1) The S. aureus strain RN4220Bi^R is isolated in vitro. For this purpose, 100 μl portions of an S. aureus RN4220 cell suspension (about 1.2×10^8 cfu/ml) are plated out on an antibiotic-free agar plate (18.5 mM Na2HPO4, 5.7 mM KH2PO4, 9.3 mM NH4Cl, 2.8 mM MgSO4, 17.1 mM NaCl, 0.033 μg/ml of thiamine hydrochloride, 1.2 μg/ml of nicotinic acid, 0.003 μg/ml of biotin, 1% glucose, 25 μg/ml of each proteinogenic amino acid with the addition of 0.4% BH broth and 1% agarose) and on an agar plate containing 2 μg/ml of biphenomycin B (10×MIC), and incubated at 37° C. overnight. Whereas about […] cells grow on the antibiotic-free plate, about 100 colonies grow on the antibiotic-containing plate, corresponding to a resistance rate of 1×10^−5. Some of the colonies grown on the antibiotic-containing plate are tested for the biphenomycin B MIC. One colony with a MIC of >50 μM is selected for further use, and the strain is referred to as RN4220Bi^R.

S. aureus T17 = experiment: Minimum inhibitory concentration (MIC), biphenomycin-resistant S. aureus T17; format: cell-based; conditions: for MIC: Staphylococcus aureus, T17
Description: (§2) Determination of the Minimum Inhibitory Concentration (MIC)
(§3) The minimum inhibitory concentration (MIC) is the minimum concentration of an antibiotic with which the growth of a test microbe is inhibited over 18-24 h. The inhibitor concentration can thereby be determined by standard microbiological methods (see, for example, The National Committee for Clinical Laboratory Standards. Methods for dilution antimicrobial susceptibility tests for bacteria that grow aerobically; approved standard-fifth edition. NCCLS document M7-A5 [ISBN 1-56238-394-9]. NCCLS, 940 West Valley Road, Suite 1400, Wayne, Pa. 19087-1898 USA, 2000). The MIC of the compounds of the invention is determined in the liquid dilution test on the 96-well microtiter plate scale. The bacterial microbes are cultivated in a minimal medium (18.5 mM Na2HPO4, 5.7 mM KH2PO4, 9.3 mM NH4Cl, 2.8 mM MgSO4, 17.1 mM NaCl, 0.033 μg/ml of thiamine hydrochloride, 1.2 μg/ml of nicotinic acid, 0.003 μg/ml of biotin, 1% glucose, 25 μg/ml of each proteinogenic amino acid with the exception of phenylalanine; [H.-P. Kroll; unpublished]) with addition of 0.4% BH broth (test medium). In the case of Enterococcus faecium L4001, heat-inactivated fetal calf serum (FCS; GibcoBRL, Germany) is added to the test medium in a final concentration of 10%. Overnight cultures of the test microbes are diluted to an OD578 of 0.001 (to 0.01 in the case of enterococci) in fresh test medium, and incubated 1:1 with dilutions of the test substances (1:2 dilution steps) in test medium (200 μl final volume). The cultures are incubated at 37° C. for 18-24 hours; enterococci in the presence of 5% CO2.
(§4) The lowest substance concentration in each case at which no visible bacterial growth occurs any longer is defined as the MIC.
(§5) Alternative Method for Determining the Minimum Inhibitory Concentration (MIC)
(§6) The minimum inhibitory concentration (MIC) is the minimum concentration of an antibiotic with which the growth of a test microbe is inhibited over 18-24 h. The inhibitor concentration can thereby be determined by standard microbiological methods with modified medium in an agar dilution test (see, for example, The National Committee for Clinical Laboratory Standards. Methods for dilution anti-microbial susceptibility tests for bacteria that grow aerobically; approved standard-fifth edition. NCCLS document M7-A5 [ISBN 1-56238-394-9]. NCCLS, 940 West Valley Road, Suite 1400, Wayne, Pa. 19087-1898 USA, 2000). The bacterial microbes are cultivated on 1.5% agar plates which contain 20% defibrinated horse blood. The test microbes, which are incubated overnight on Columbia blood agar plates (Becton-Dickinson), are diluted in PBS, adjusted to a microbe count of about 5×10^5 microbes/ml and placed dropwise (1-3 μl) on test plates. The test substances comprise different dilutions of the test substances (1:2 dilution steps). The cultures are incubated at 37° C. in the presence of 5% CO2 for 18-24 hours.
The lowest substance concentration in each case at which no visible bacterial growth occurs any longer is defined as the MIC and is reported in μg/ml.
The S. aureus strain T17 is isolated in vivo. CFW1 mice are infected intraperitoneally with 4×10^7 S. aureus 133 cells per mouse. 0.5 h after the infection, the animals are treated intravenously with 50 mg/kg of biphenomycin B. The kidneys are removed from the surviving animals on day 3 after the infection. […]

[1] = target: S. aureus 133 Translation; experiment: S. aureus in vitro transcription-translation assay (firefly luciferase, S30 extract); format: biochemical; conditions: 50% inhibition of the translation of firefly luciferase
Description: In Vitro Transcription-Translation with S. aureus Extracts
Construction of an S. aureus Luciferase Reporter Plasmid
In order to construct a reporter plasmid which can be used in an in vitro transcription-translation assay from S. aureus the plasmid pBESTluc (Promega Corporation, USA) is used. The E. coli tac promoter present in this plasmid in front of the firefly luciferase is replaced with the capA1 promoter with corresponding Shine-Dalgarno sequence from S. aureus. The primers CAPF or 5′-[…]-[…]-3′ and CAPRev 5′-[…]-3′ are used for this. The primer CAPFor contains the capA1 promoter, the ribosome binding site and the 5′ region of the luciferase gene. After PCR using pBESTluc as template it is possible to isolate a PCR product which contains the firefly luciferase gene with the fused capA1 promoter. This is, after restriction with ClaI and HindIII, ligated into the vector pBESTluc which has likewise been digested with ClaI and HindIII. The resulting plasmid p1a can be replicated in E. coli and be used as template in the S. aureus in vitro transcription-translation test.
Preparation of S30 Extracts from S. aureus
Six litres of BHI medium are inoculated with a 250 ml overnight culture of an S. aureus strain and allowed to grow at 37° C. up to an OD600 nm of 2-4. The cells are harvested by centrifugation and washed in 500 ml of cold buffer A (10 mM Tris acetate, pH 8.0, 14 mM magnesium acetate, 1 mM DTT, […]). After renewed centrifugation, the cells are washed in 250 ml of cold buffer A with 50 mM KCl, and the resulting pellets are frozen at −20° C. for 60 min. The pellets are thawed on ice in 30 to 60 min and taken up to a total volume of 99 ml in buffer B (10 mM Tris acetate, pH 8.0, 20 mM magnesium acetate, 1 mM DTT, 50 mM KCl). 1.5 ml portions of lysostaphin (0.8 mg/ml) in buffer B are provided in 3 precooled centrifuge cups and each mixed with 33 ml of the cell suspension. The samples are incubated at 37° C., for 45 to 60 min shaking occasionally, before 150 μl of a 0.5 M DTT solution are added. The lysed cells are centrifuged at 30 000×g and 4° C. for 30 min. The cell pellet is taken up in buffer B and then centrifuged again under the same conditions, and the collected supernatants are combined. The supernatants are centrifuged again under the same conditions, and 0.25 volumes of buffer C (670 mM Tris acetate, pH 8.0, 20 mM magnesium acetate, 7 mM Na3 phosphoenolpyruvate, 7 mM DTT, 5.5 mM ATP, 70 μM amino acids (complete from Promega), 75 μg of pyruvate kinase (Sigma, Germany))/ml are added to the upper ⅔ of the supernatant. […]
The inhibition of protein biosynthesis of the compounds can be shown in an in vitro transcription-translation assay. […] The activity of the resulting luciferase can be detected by luminescence measurement. […]

S. aureus 133 [2] = experiment: Minimum inhibitory concentration (MIC), S. aureus 133; format: cell-based
Description: as §2, §3, §4, §5
as §6, with “The test substances comprise different dilutions of the test substances (1:2 dilution steps). The cultures are incubated at 37° C. in the presence of 5% CO2 for 18-24 hours.” left out

S. aureus RN4220 = experiment: Spontaneous resistance rate, S. aureus RN4220; format: cell-based; conditions: agar plate containing 2 μg/ml of biphenomycin B (10×MIC), 37° C. overnight
Description: The spontaneous resistance rates for the compounds of the invention are determined as follows: the bacterial microbes are cultivated in 30 ml of a minimal medium (18.5 mM Na2HPO4, 5.7 mM KH2PO4, 9.3 mM NH4Cl, 2.8 mM MgSO4,17.1 mM NaCl, 0.033 μg/ml of thiamine hydrochloride, 1.2 μg/ml of nicotinic acid, 0.003 μg/ml of biotin, 1% glucose, 25 μg/ml of each proteinogenic amino acid with the addition of 0.4% BH broth) at 37° C. over-night, centrifuged at 6000×g for 10 min and resuspended in 2 ml of a phosphate-buffered physiological NaCl solution (about 2×10^9 microbes/ml). […] The resulting colonies (cfu) are counted.
as §1, with “Some of the colonies grown on the antibiotic-containing plate are tested for the biphenomycin B MIC. One colony with a MIC of >50 μM is selected for further use, and the strain is referred to as RN4220Bi^R.” left out

S. aureus 133 [3] = experiment: Systemic infection with S. aureus 133 (mouse sepsis model); format: in vivo; conditions: female CFW1 mice, i.p. infection, i.v. therapy 30 minutes after infection, survival over 6 days
[4] = Staphylococcus aureus, 133, read-out: MIC S. aureus 133

| Compound | IC50 [1] | MIC (S. aureus T17; biphenomycin-resistant strain) | MIC (S. aureus 133 [2]; [4]) | also measured |
| --- | --- | --- | --- | --- |
| NC[C@H](O)C[C@@H]1NC(=O)[C@@H](N)Cc2cc(ccc2O)-c2ccc(O)c(c2)C[C@@H](C(=O)O)NC1=O [Biphenomycin B, biphenomycin B, reference compound] | 1500 nM | – | – | MIC of selected colony (strain RN4220Bi^R) (S. aureus RN4220Bi^R): > 50 µM; MIC S. aureus T17 (S. aureus T17; biphenomycin-resistant strain): >32 µg/mL; MIC of selected colony (strain T17) (S. aureus T17; colony isolated in vivo from kidney of treated mice): > 50 µM; MIC S. aureus 133 (S. aureus 133 [2]): <0.03 µg/mL; resistance rate (S. aureus RN4220): 1×10^−5 |
| NCCC[C@H](N)CNC(=O)C[C@H](CCCN)NC(=O)C[C@@H]1Cc2cccc(c2)-c2ccc(O)c(c2)C[C@H](N)C(=O)N[C@@H](CCCN)C(=O)N1 [Example 1, (3S)-6-Amino-3-({[(8S11,S14S)-14-amino-11-(3-aminopropyl)-17-hydroxy-10,13-dioxo-9,12-diazatricyclo[14.3.1.1^2,6]henicosa-1(20),2(21),3,5,16,18-hexaen-8-yl]acetyl{amino)-N-[(2S)-2,5-diaminopentyl]hexanamidepentahydrochloride] | 350 nM | 2 µg/mL | – | MIC (S. aureus 133 [2]; Staphylococcus aureus, 133; read-out: MIC S. aureus 133): 2 µg/mL |
| NCCC[C@H](NC(=O)C[C@@H]1Cc2cccc(c2)-c2ccc(O)c(c2)C[C@H](N)C(=O)N[C@@H](CCCN)C(=O)N1)C(=O)NCCN [Example 2, N^2-{[(8S,11S,14S)-14-Amino-11-(3-aminopropyl)-17-hydroxy-10,13-dioxo-9,12-diazatricyclo[14.3.1.1^2,6]henicosa-1(20), 2(21),3,5,5,16,18-hexaen-8-yl]acetyl}-N-(2-aminoethyl)-L-ornithinamide tetrahydrochloride] | – | – | – | therapeutic activity ED100 (S. aureus 133 [3]): 1.25 mg/kg |
| NCCC[C@H](N)CNC(=O)C[C@@H]1Cc2cccc(c2)-c2ccc(O)c(c2)C[C@H](N)C(=O)N[C@@H](CCCN)C(=O)N1 [Example 5, 2-[(8S,11S,14S)-14-Amino-11-(3-aminopropyl)-17-hydroxy-10,13-dioxo-9,12-diazatricyclo[14.3.1.1^2,6]henicosa-1(20),2(21),3,5,16,18-hexaen-8-yl]-N-[(2S)-2,5-diaminopentyl]acetamide tetrahydrochloride] | 700 nM | 2 µg/mL | 2 µg/mL | – |
| NCCC[C@H](N)CNC(=O)C[C@@H](N)CCCNC(=O)[C@H](CCCN)NC(=O)C[C@@H]1Cc2cccc(c2)-c2ccc(O)c(c2)C[C@H](N)C(=O)N[C@@H](CCCN)C(=O)N1 [Example 7, (3S)-3-Amino-6-[(N^2-{[(8S,11S,14S)-14-amino-11-(3-aminopropyl)-17-hydroxy-10,13-dioxo-9,12-diazatricyclo[14.3.1.1^2,6]henicosa-1(20), 2(21), 3,5,16,18-hexaen-8-yl]acetyl}-L-ornithyl)amino]-N-[(2S)-2,5-diaminopentyl]hexanamide hexahydrochloride] | 200 nM | 2 µg/mL | 2 µg/mL | – |
